Data published in patent US9877501B2, “Stevia composition” (PureCircle Sdn Bhd, priority 2011, dated 2018).
Read-outs that look alike come from different tables or passages of the source.

Experiments:
[1] = cited from earlier work
[2] = carbonated beverages; Chang and Cook 1983; cited from earlier work
[3] = Sensory evaluation of zero-calorie carbonated beverage samples by 20 panelists; settings: 0.050% stevia composition
Procedure: The sensory properties were evaluated by 20 panelists.

[4] = sensory evaluations, Crammer and Ikan 1986

Compound	times sweeter than sucrose ([1]; Tanaka 1987, Phillips 1989)	times sweeter than sucrose [1, 4]	heat and pH stability [2]	further results
C=C1C[C@@]23CC[C@H]4[C@@](C)(CCC[C@@]4(C)C(=O)O[C@@H]4O[C@H](CO)[C@@H](O)[C@H](O)[C@H]4O)[C@@H]2CC[C@]1(O[C@@H]1O[C@H](CO)[C@@H](O)[C@H](O)[C@H]1O[C@@H]1O[C@@H](C)[C@H](O)[C@@H](O)[C@H]1O)C3 [Dulcoside A]	30 times	–	–	–
C=C1C[C@@]23CC[C@H]4[C@@](C)(CCC[C@@]4(C)C(=O)O[C@@H]4O[C@H](CO)[C@@H](O)[C@H](O)[C@H]4O)[C@@H]2CC[C@]1(O[C@@H]1O[C@H](CO)[C@@H](O)[C@H](O[C@@H]2O[C@H](CO)[C@@H](O)[C@H](O)[C@H]2O)[C@H]1O[C@@H]1O[C@H](CO)[C@@H](O)[C@H](O)[C@H]1O)C3 [Reb A, rebaudioside A]	–	350-450 times	confirmed their heat and pH stability	sensory attributes among major steviol glycosides ([1]; Tanaka 1987, Phillips 1989): the least astringent, the least bitter, and the least persistent aftertaste; Number of panelists detected the attribute: Aftertaste [3]: 12; Number of panelists detected the attribute: Astringent taste [3]: 9; Number of panelists detected the attribute: Bitter taste [3]: 10
C=C1C[C@@]23CC[C@H]4[C@@](C)(CCC[C@@]4(C)C(=O)O[C@@H]4O[C@H](CO)[C@@H](O)[C@H](O)[C@H]4O)[C@@H]2CC[C@]1(O[C@@H]1O[C@H](CO)[C@@H](O)[C@H](O)[C@H]1O[C@@H]1O[C@H](CO)[C@@H](O)[C@H](O)[C@H]1O)C3 [stevioside]	110-270 times	–	confirmed their heat and pH stability	–
Rebaudioside B [reb B]	–	300-350 times	–	–
rebaudioside C	40-60 times	–	–	–
